Results: US6610681B1, “Neurotherapeutic clavulanate composition and method” (Revaax Pharmaceuticals, LLC, priority 1999, dated 2003)
“Also recorded” adds a separate entry of the source.

Columns and labels:
male golden hamsters = assay: resident/intruder paradigm of offensive aggression; type: in vivo, hamster
Excerpt: Agonistic behavior can be classified as either offensive or defensive aggression (Blanchard and Blanchard, 1977; Adams, […]; Albert and Walsh, 1984). Offensive aggression is characterized by an aggressor initiating an attack on an opponent; while, defensive aggression lacks active approach. Both types of aggression have their own unique neurobehavioral systems. The stimuli that elicit offensive and defense attack are different, as are the sequences of behaviors that accompany each agonistic response. […] Offensive aggression is easily studied using male golden hamsters tested in a resident/intruder paradigm, an established model of offensive aggression (Ferris and Potegal 1988) in the context of defending the home burrow. Placing an unfamiliar male hamster into the home cage of another male hamster elicits a well-defined sequence of agonistic behaviors from the resident that includes offensive aggression.
Hamsters are nocturnal and as such all behavioral tests were performed during the first four hrs of the dark phase under dim red illumination. The resident was scored for offensive aggression, e.g., latency to bite the intruder, the total number of bites, total contact time with the intruder and flank marking over a 10 min test period (Ferris and Potegal, 1988). Flank marking is a form of olfactory communication in which a hamsters arches its back and rubs pheromone producing flank glands against objects in the environment (Johnston, 1986).
Five male golden hamsters (130-140 g) were given IP injections of CLAV (200 μg/kg) and saline vehicle in a volume of ca. 0.2 ml. […] Vehicle and CLAV treatments were counter balanced and randomized so all five animals received each treatment separated by at least 48 hrs. Animals were tested 90 min after treatment over a 10 min observation period. Latencies and contact time were analyzed with a two-way ANOVA. Non-parametric data, i.e., number of bites and flank marks were analyzed by Wilcoxon matched-pairs signed-ranks test.
The animals tested in this study were those used in Section IX. After the seed finding assay, beta-NAAG (n=6) and saline vehicle (n=6) treated animals remained in their home cage and were presented with a smaller, male intruder. The resident was scored for latency to bite, bites, contact time and flank marking over a 10 min observation period. Latency to bite and contact time between treatments were compared with Student t-tests. Non-parametric measures of bites and flank marks for beta-NAAG vs vehicle were compared with Mann-Whitney.

male Wistar rats = assay: elevated plus-maze; type: in vivo, rat
Excerpt: The elevated plus-maze was developed for screening anxiolytic and anxiogenic drug effects in the rat (Pellow et al., 1985). The method has been validated behaviorally, physiologically, and pharmacologically. The plus-maze consists of two open arms and two enclosed arms. […] Conversely, anxiogenic compounds like yohimbin or amphetamines reduce open arm entries and time spent in the open arms.
Male Wistar rats weighing 250-300 g were group housed in a normal 12:12 light-dark cycle with light on at 0800 hr and provided food and water ad libitum. The plus-maze consisted of two open arms, 50 cm long, 10 cm wide, […]. The two closed arms had the same dimensions but included a roof. The Plexiglas for the closed arms was painted black. Each pair of arms was arranged opposite to each other to form the plus-maze. The maze was elevated to a height of 50 cm. Eighteen animals were tested in the plus-maze 90 min following the IP injection of 1.0 μg/kg CLAV, 50 or vehicle control in a volume of ca. 0.3 ml. The order of treatments was counter balanced with at least 48 hrs between injections. At the start of the experiment, the animal was placed at the end of one of the open arms. Over a five min observation period, animals were scored for the latency to enter the closed arm, time spent in the closed arm and the number of open arm entries following the first occupation of the closed arm. The study produced tables of repeated measures. The data between treatments were compared with a two-way, repeated measures ANOVA followed by Bonferroni post hoc tests.
Chlordiazepoxide (Librium®) is a commonly prescribed anxiolytic that has been thoroughly characterized in preclinical studies. The effective anxiolytic dose in the plus-maze is 10-25 mg/kg (Lister 1987; File and Aranko 1988; Shumsky and Lucki 1994). […] However, it was discovered animals develop a tolerance to the motor depression with repeated daily administration of CDP for several days (Shumsky and Lucki 1994). […] While CLAV has no effect on motor activity it was necessary to treat an equal number of rats with daily injections of CLAV (100 ng/kg) to insure a balanced experimental design. In addition there was a third group of rats (n=6) receiving daily injections of saline vehicle. The study reported in Section II tested CLAV at 1 μg/kg in the plus-maze. […] For this reason CLAV was tested at 100 ng/kg in these studies.

[1] = 1.0 μg/kg IP, 90 min, vs vehicle
[2] = daily IP 7 days, CLAV 100 ng/kg, CDP 10 mg/kg, vs vehicle

SMILES	antiaggressive properties (summary) (male golden hamsters; 200 μg/kg)	contact time with the intruder (male golden hamsters; 200 μg/kg IP, 90 min)	flank marking behavior (male golden hamsters; 200 μg/kg IP, 90 min)	latency to bite the intruder (male golden hamsters; 200 μg/kg IP, 90 min, trend toward significance)	median number of bites (male golden hamsters; 200 μg/kg IP, 90 min, vehicle thirteen)	aggressive behavior, pilot studies (male golden hamsters; IP at 1.0 μg/kg)	activity in the plus-maze (summary) (male Wistar rats; 1 μg/kg)	latency to enter the dark (closed arm) (male Wistar rats; [1])	open arm entries (male Wistar rats; [1])	time spent in the open arm (male Wistar rats; [1])	open arm entries (male Wistar rats; daily IP 7 days, CLAV 100 ng/kg, CDP 10 mg/kg)	latency to enter the dark closed arms (male Wistar rats; [2])	time spent exposed to light in the open arms (male Wistar rats; [2])	aggression (male golden hamsters; i.p. at 50 micrograms/kg, hamster)	anxiolytic action (male Wistar rats; i.p. at 50 micrograms/kg, rats)
O=C(O)[C@H]1/C(=C/CO)O[C@@H]2CC(=O)N21 [CLAV, clavulanic acid]	modest antiaggressive or serenic-like properties	no significant main effect for drug treatment	unaffected; also recorded: no significant effect of drug treatment	no significant main effect for drug treatment	six	no effect on aggressive behavior	anxiolytic activity	stayed in the starting open light position longer	increased movement into the lighted open arms	significantly increased	no significant difference between treatments	significantly greater	significantly greater		
CO[C@@]1(NC(=O)C(C(=O)O)c2ccc(O)cc2)C(=O)N2C(C(=O)O)=C(CSc3nnnn3C)CO[C@@H]21 (stereo partly drawn) [Moxalactam, 7-β-[2-carboxy-2-(4-hydroxyphenyl)acetamido]-7α-methoxy-3-[[(1-methyl-1H-tetrazol-5-yl)thio]methyl]-1-oxa-1-dethia-3-cephem-4-carboxylic acid]														inhibits aggression in hamster	acts as an anxiolytic in rats
